Measured values from patent US4094908A, “Alpha-substituted benzhydrol derivatives” (Richter Gedeon Vegyeszeti Gyar Rt., priority 1973, dated 1978).

Legend:
[1] = test system: hexobarbital oxidase; experiment: Enzyme inhibiting ability in vivo: change of hexobarbital oxidase activity (hexobarbital narcosis period); parameters: species or system Female Wistar rats; settings: in words, even 48 hours after administration
Experimental: (§1) Female Wistar rats, each weighing 80 to 100 g., were treated orally with a single 0.3 mM/kg. dosage of the active agent. 24 and 48 hours after the administration of the active agent, respectively, the animals were narcotized with 40 mg./kg. i.v. dosage of hexobarbital sodium, and the time elapsed until complete wakening was measured (Noordhock, J.: Eur. J. Pharmacol. 3, 242, 1968). The data were recorded, and the mean values, the standard errors, as well as the percentage increase with respect to the controls were calculated for each group. […] The hexobarbital concentration of the plasma, measured on the instant of wakening, was the same for both the treated and the control animals, thus the increase of narcosis period was not due to a certain central nervous interaction (Jori, A., Bianchatti, A., Presentini, P. E.: Biochem. Pharmacol. 19, 2687, 1970).

[2] = test system: liver microsomal enzyme system; experiment: Promotion or inhibition of the liver microsomal enzyme system; type: in vivo; settings: in words
Excerpt: Tests per the methods described herein have shown compounds to be either effective in the promotion or inhibition of the liver microsomal enzyme system as follows: […]

[3] = test system: central nervous system; type: in vivo, mice and rats; settings: in words; in contrast with phenobarbital
Excerpt: The central nervous activities of the compounds according to the invention were examined on mice and rats with the following methods: electroshock (Swinyard, E. A., Brown, W. C., Goodman, L. S.: J. Pharmacol. Exp. Ther. 106, 319, 1952), metrazol spasm (Everett, G. M., Richards, R. K.: J. Pharmacol. Exp. Ther. 81, 402: 1944), thiosemicarbezide spasm (Da Venzo, J. P. Greig, M. E., Cormin, M. A.: Amer. J. Physiol. 201, 833: 1961), strychnine spasm (Kerley, T. L., Richards, A. G., Begley, R. W., Abreu, B. B. Wesver, L. C.: J. Pharmacol. Exp. Ther. 132, 360: 1961), nicotine spasm (Stone, C. A., Mecklenburg, K. L., Torhans, M. L.: Arch. Int. Pharmacodyn. 117, 419: 1958), rotarod test (Kinnard, W. C., Carr, C. J.: J. Pharmacol. Expt. Ther. 121, 3, 54: 1957), physistigmine lethality preventing effect (Nose, T., Kojima, M.: Europ. J. Pharmacol. 10, 83: 1970), yohimbine potentiation effect (Quinton, R. M.: Brit. J. Pharmacol. 21, 51: 1963), and analgesic activity (Bianchi, G., Franceschini, J.: Brit. J. Pharm. Chemother. 9, 280: 1954). As reference substance, phenobarbital was used. […]

[4] = test system: UDP-glucoronyltransferase; experiment: UDP-glucuronyltransferase activity of liver tissues removed from pre-treated animals (bilirubin conjugation); type: in vivo; settings: liver tissues of pre-treated animals incubated with bilirubin
Experimental: In an in vivo test, liver tissues removed from animals pre-treated with compounds of the formula (I) were incubated in the presence of bilirubin, in order to determine the UDP-glucoronyltransferase activity of the liver tissues (Adlard, B. P. F., Lester, R. G., Lathe, G. H.: Biochem Pharmacol. 18, 59, 1969).

[5] = test system: hexobarbital oxidase; experiment: Enzyme-inducing potency: in vivo hexobarbital oxidase activity (duration of hexobarbital narcosis); parameters: species or system Female Wistar rats; settings: 24 hours before hexobarbital
Experimental: as §1, with “Female Wistar rats, each weighing 80 to 100 g., were treated orally with a single 0.3 mM/kg. dosage of the active agent.” left out
The enzyme-inducing potency of the new compounds was determined by several methods. One of these methods was the in vivo measurement of hexobarbital oxidase activity.
The decrease of narcosis period is due to the fact that the new compounds according to the invention accelerate the elimination of hexobarbital, a foreign substance, from the body. When administering the compound to be tested in a single dosage and measuring the duration of hexobarbital narcosis 24 hours after the administration, the following results are obtained: […]

[6] = Toxicity: perished animals/tested animals; type: in vivo
Excerpt: Despite its disadvantageous properties, phenobarbital is widely used in the treatment of neonatal jaundice. In order to enable a better comparison, Table 8 indicates the respective dosages in which phenobarbital causes lethal respiration paralysis, while the compounds according to the invention are completely innocuous.

[7] = test system: bromosulfophthalein elimination; experiment: Bromosulfophthalein (BSP) concentration of the plasm after pre-treatment; type: in vivo; settings: 24 hours after pre-treatment; after i.v. bromsulfophthaleine
Experimental: The bromosulfophthalein (BSP) concentration of the plasm was determined 24 hours after pre-treatment with the compounds of the formula (I) and after the intravenous administration of bromsulfophthaleine, respectively (Varga, F., Fisher, E.: Acta Physiol. Hung. 36, 431, 1969).

[8] = test system: meprobamate elimination; experiment: Biological halving period of meprobamate after pre-treatment; type: in vivo; settings: 24 hours after pre-treatment
Experimental: The biological halving period of meprobamate was determined 24 hours after pre-treatment with the compounds of the formula (I) (Ludwig, B. J., Hoffman, A. J.; Arch. Biochem. 72, 234, 1957).

[9] = test system: liver microsomal enzyme system; experiment: Biological halving period of hexobarbital and hexobarbital concentration at wakening; type: in vivo; settings: pre-treated 24 hours prior to hexobarbital; female rats 150 g
[10] = test system: bilirubin elimination; experiment: Bilirubin elimination under in vivo conditions; parameters: species or system rats
Experimental: When examining the bilirubin elimination under in vivo conditions on rats pre-treated with E 15 or phenobarbital, respectively, and challenged intravenously with a dosage of 30 mg./kg. of free bilirubin, the following biological halving periods were determined (Krueger, H., Higginson, J.: Proc. Soc. Exp. Biol. Med. 107, 43, 1961): […]

Compound	Inhibition of the microsomal enzyme / xenobiotic elimination, duration [1]	Potency among the enzyme inducing or inhibiting compounds [2]	Central nervous effects [3]	Effect on the liver microsomal enzyme system (inducing or inhibiting) [2]	Duration and strength of inducing effect compared with phenobarbital [2]	Conjugated bilirubine [4] [µg/g/h]	Sleeping period ± standard error ([5]; 5 mg./kg. single dosage)	Sleeping period ± standard error ([5]; 10 mg./kg. single dosage)	Sleeping period ± standard error ([5]; 20 mg./kg. single dosage)	Sleeping period ± standard error ([5]; 40 mg./kg. single dosage)	Perished animals/tested animals ([6]; 40 mg./kg)	Perished animals/tested animals ([6]; 80 mg./kg)	Perished animals/tested animals ([6]; 160 mg./kg)	Perished animals/tested animals ([6]; 320 mg./kg)	Perished animals/tested animals ([6]; 640 mg./kg)	BSP concentration of the plasm [7] [μg./mg. plasm]	also measured
C=CC(O)(c1ccccc1)c1ccc(OC)cc1OC (stereo not drawn) [2,4-dimethoxy-α-vinylbenzhydrol, 2,4-dimethoxy-α-vinyl-benzhydrol]	long-lasting inhibition, the degree of which remains significant even 48 hours after administration	particularly potent															
C=CC(O)(c1ccccc1)c1ccccc1F (stereo not drawn) [2-fluoro-α-vinyl-benzhydrol, 2-Fluoro-α-vinyl-benzhydrol]			no central nervous effects	particularly advantageous inducing effect	reaches that of phenobarbital												
C=CC(O)(c1ccccc1)c1ccc(Cl)c(Cl)c1 (stereo not drawn) [3,4-dichloro-α-vinylbenzhydrol, 3,4-dichloro-α-vinyl-benzhydrol]		particularly potent															
CCC(O)(c1ccccc1)c1cccc(Cl)c1 (stereo not drawn) [E 9, 3-chloro-α-ethyl-benzhydrol]			no central nervous effects	particularly advantageous inducing effect	reaches that of phenobarbital	36.7 ± 3.2	21.7 ± 2.0	15.2 ± 1.4	13.6 ± 1.4	12.4 ± 1.2	0/10	0/10	0/10	0/10	0/10	7.6	
CCC(O)(c1ccccc1)c1ccc(Cl)cc1Cl (stereo not drawn) [E 11, 2,4-dichloro-α-ethyl-benzhydrol]			no central nervous effects	particularly advantageous inducing effect	reaches that of phenobarbital	35.7 ± 2.8	22.0 ± 2.1	16.4 ± 1.6	15.0 ± 1.4	13.0 ± 1.2	0/10	0/10	0/10	0/10	0/10	5.4	t1/2 (biological halving period of meprobamate) [8]: 2.8 hours; t1/2 (biological halving period of hexobarbital) [9]: 26 min.
CCC(O)(c1ccccc1)c1cccc(C(F)(F)F)c1 (stereo not drawn) [E 15, 3-Trifluoromethyl-α-ethyl-benzhydrol]		particularly potent	no central nervous effects	particularly advantageous inducing effect	reaches that of phenobarbital	37.4 ± 3.6	18.0 ± 1.7	14.2 ± 1.5	10.6 ± 1.2	8.8 ± 0.9	0/10	0/10	0/10	0/10	0/10	5.0	t1/2 (biological halving period of meprobamate) [8]: 2.1 hours; t1/2 (biological halving period of bilirubin) ([10]; pre-treated rats, 30 mg./kg. free bilirubin i.v.): 7 min; Acceleration of bilirubin elimination compared with phenobarbital ([10]; rats, in words): about twice stronger than that of phenobarbital; t1/2 (biological halving period of hexobarbital) [9]: 23 min.
CCC(O)(c1ccccc1)c1ccccc1OC (stereo not drawn) [E 16, 2-methoxy-α-ethyl-benzhydrol]	inhibit the elimination of xenobiotic agents and the inactivation thereof in the liver for a long time	particularly potent															Inhibition of the microsomal enzyme / xenobiotic elimination, duration ([1]; listed as 2-methoxy-α-ethylbenzhydrol): long-lasting inhibition, the degree of which remains significant even 48 hours after administration
CCN(CC)CCOc1ccc(C(O)(CC)c2ccccc2)cc1 (stereo not drawn) [E 17, 4-(β-diethylaminoethoxy)-α-ethyl-benzhydrol]	inhibit the elimination of xenobiotic agents and the inactivation thereof in the liver for a long time	particularly potent															Inhibition of the microsomal enzyme / xenobiotic elimination, duration ([1]; listed as 4-(β-diethylaminoethoxy)-α-ethyl-benzhydrol): long-lasting inhibition, the degree of which remains significant even 48 hours after administration
CCC(O)(c1ccccc1)c1cc(C)ccc1C (stereo not drawn) [E 20, 2,5-dimethyl-α-ethyl-benzhydrol]		particularly potent	no central nervous effects	particularly advantageous inducing effect	reaches that of phenobarbital	35.1 ± 2.6	23.8 ± 1.9	18.76 ± 1.9		13.0 ± 1.2							
